This note sets out measurements from US20130109698A1, “Small Molecule Inhibitors of Functions of the HIV-1 Matrix Protein” (priority 2010, published 2013).

In data set [1] the test system is influenza H1N1. Briefly: Antiviral spectrum: cytopathic effect assay. In kind it is cell-based. Conditions: influenza H1N1, up to 100 μM. For orientation: Cytopathic effects are the visible damage that an infection or toxin causes in cultured cells.
Data set [2] concerns HIV-1 93IN101. Kind of data set: Anti-HIV efficacy in human PBMCs, reverse transcriptase activity. In kind it is cell-based. The conditions noted are these: HIV-1 93IN101, PBMCs; for IC50 / IC90: Human immunodeficiency virus 1, PBMC. As to the method: (§1) HIV human peripheral blood mononuclear cell (PBMC) assays were performed as described previously (Lanier et al., 2010, Antimicrob Agents Chemother 54:2901-2909 and Ptak et al., 2008, Antimicrob Agents Chemother 52:1302-1317). Briefly, fresh PBMCs, seronegative for HIV and hepatitis B virus (HBV), were isolated from blood samples of the screened donors (Biological Specialty Corporation, Colmar, Pa.) by using lymphocyte separation medium (LSM; density, 1.078±0.002 g/ml; Cellgro; Mediatech, Inc.) by following the manufacturer's instructions. Cells were stimulated by incubation in 4 μg/mL phytohemagglutinin (PHA; Sigma) for 48 to 72 h. Mitogenic stimulation was maintained by the addition of 20 U/mL recombinant human interleukin-2 (rhIL-2; R&D Systems, Inc.) to the culture medium. PHA-stimulated PBMCs from at least two donors were pooled, diluted in fresh medium, and added to 96-well plates at 5×10^4 cells/well. Cells were infected (final multiplicity of infection [MOI] of ≅0.1) in the presence of nine different concentrations of test compounds (triplicate wells/concentration) and incubated for 7 days. To determine the level of virus inhibition, cell-free supernatant samples were collected for analysis of reverse transcriptase activity (Buckheit et al., 1991, AIDS Res Hum Retroviruses 7:295-302). Following removal of supernatant samples, compound cytotoxicity was measured by the addition of 3-(4,5-dimethylthiazol-2-yl)-5-(3-carboxymethoxy-phenyl)-2-(4-sulfophenyl)-2H-tetrazolium (MTS; CellTiter 96 reagent; Promega) by following the manufacturer's instructions.

Data set [3] has as its system HIV-1 92BR030. Described as above. The format is cell-based. The conditions noted are these: HIV-1 92BR030, PBMCs; for IC50 / IC90: Human immunodeficiency virus 1, PBMC. The procedure:
as §1

Data set [4] relates to Chikungunya. Kind of data set: Antiviral spectrum: cytopathic effect assay. The format is cell-based.
The test system of data set [5] is luciferase-reporter HIV-1 NL4-3 pseudotyped with HxBc2 envelope produced in 293T cells. Kind of data set: microbe, parasite or virus in culture.
Data set [6] deals with herpes simplex type 1. Briefly: Antiviral spectrum: HSV-1 in Vero cells. In kind it is cell-based. The conditions noted are these: herpes simplex type 1, up to 100 μM. The procedure: The effects of the compounds on HSV-1 (dsDNA; strain HF evaluated in Vero cells; virus and cells obtained from the American Type Culture Collection [ATCC]) were assessed as described previously (Ptak et al., 2008, Antimicrob Agents Chemother 52:1302-1317).

In data set [7] the test system is respiratory syncytial virus. Kind of data set: Antiviral spectrum: cytopathic effect assay. The format is cell-based.
For data set [8], the system named is SIV MAC251. Briefly: Antiviral efficacy in PBMCs, reverse transcriptase activity. In kind it is cell-based. The conditions noted are these: for IC50 / IC90: Simian immunodeficiency virus, PBMC.
Data set [9] deals with yellow fever. The format is cell-based. Conditions: up to 100 μM.
Data set [10] has as its system Vaccinia. The format is cell-based. Conditions: up to 100 μM.
Data set [11] relates to Japanese encephalitis. Kind of data set: Antiviral spectrum: cytopathic effect assay. The format is cell-based.
Data set [12] deals with T1, HIV-1 MA (Human immunodeficiency virus type 1 group M subtype B, UniProt P03348).
T1 construct: His6 (N, cleaved yes); SUMO (N, cleaved yes); made in house; host or cells: Escherichia coli BL21 (DE3) Codon+-RIL
Briefly: Surface plasmon resonance direct binding to immobilized HIV-1 MA. The conditions noted are these: for direct interaction with sensor chip-immobilized HIV-1 MA: CM7 sensor chip, 10 μM (FIG. 14). From the text: An assay was devised to monitor the interactions of small-molecule compounds to HIV-1 MA using SPR. In this assay, HIV-1LA1 MA was immobilized to the flow cells of a CM5 sensor chip to high density (˜1.3 kRU) or a CM7 sensor chip to high density (19 kRU) using standard amine coupling. A reference surface was similarly created by immobilizing the SUMO protein or a nonspecific antibody ARC4033 (antimouse/rat interferon-γ: BioSource). In small-molecule assays, the buffering system used is important due to the low responses obtained in binding assays. […] A stock solution of the MTI compounds was prepared by dissolving in 100% dimethyl sulfoxide (DMSO) to a final concentration of 10 mM.
To prepare the sample for analysis, 30 μL of the stock solution of the compound of the invention was added to sample preparation buffer (PBS, pH 7.2) to a final volume of 1 mL and mixed thoroughly. Preparation of analyte in this manner ensured that the concentration of DMSO was matched with that of running buffer with 3% DMSO. Lower concentrations of each compound were then prepared by two-fold serial dilutions into running buffer (PBS, 3% DMSO, pH 7.2). These compound dilutions were then injected over the control and MA surfaces at a flow rate of 30 μL min^−, for a 4-min association phase, followed by a 5-min dissociation phase.
In one aspect, owing to the relatively fast dissociation rates of these compounds, regeneration of these surfaces was accomplished by extensive washing of the system followed by a 5 min wait phase, a second wash, and a final 15 min wait phase. To secure complete regeneration, a buffer injection (5 min^on/5 min^off) was performed before each subsequent injection of compound.
Response to a small-molecule compound (NBD-556) specific for HIV-1 gp120 was also monitored to ensure specificity.
Data analysis was performed using BIAEvaluation 4.0 software (GE Healthcare). The responses of a buffer injection and responses from the ARC4033-immobilized reference cell were subtracted to account for nonspecific binding. The average maximum response was generated from a minimum of 3 data sets and was used to define the standard deviation for each compound binding to the HIV-1 MA protein.
The MTI compounds are predicted to interact with HIV-1 MA and thereby disrupt its functioning during the HIV-1 replication cycle. However, it is possible that a compound might exert its action via another mechanism not involving MA. Therefore, studies were performed to determine that the MTI compounds are directed against HIV-1 MA. The direct interaction of compounds CMPD-18, CMPD-17, CMPD-7, and CMPD-14 with HIV-1 MA was assayed using surface plasmon resonance interaction analyses. Wild-type HIV-1 MA protein was overproduced in E. coli using the pETHSUL expression system and purified using successive IMAC strategies, followed by an ion exchange chromatographic step as outlined in Materials and Methods. FIG. 6 illustrates the purification profile of HIV-1 MA. The purified MA was then immobilized onto the surface of a high-capacity CM7 sensor chip. Similarly, the monoclonal antibody ARC4033 (antimouse/rat interferon-γ; BioSource, Invitrogen, Carlsbad, Calif.) was immobilized on a CM7 sensor chip and was used to correct for background binding and instrument and buffer artifacts.
Background: In SPR one partner is held on a chip, and binding of the other changes the refractive index at the surface.

Some results are limits rather than exact numbers.

A word on the IC50: it is the point on the concentration scale where inhibition reaches its midpoint. Lower therefore signals greater potency in that assay. In general, IC90 refers to the point of the concentration-response curve where the effect stands at 90%. Read a low IC90 as greater potency. Regarding `Cc1ccc(NC(=O)CN2CCN(Cc3nc(-c4ccc(F)cc4)no3)CC2)cc1` [CMPD-7, 2-(4-((3-(4-fluorophenyl)-1,2,4-oxadiazol-5-yl)methyl)piperazin-1-yl)-N-(p-tolyl)acetamide], the “inhibitory effects on replication” value in data set [1], in [4], in [6], in [7], in [9] and in [10] was “no inhibitory effects” each time. Further, the “inhibitory effects on replication” value in data set [11] is “no inhibitory effects”. The “Antiviral index (TC50/IC50)” value is over 6.13 in data set [2], over 10.72 in data set [3] and over 10.55 in data set [8]. Also, the half-inhibitory concentration (IC50) amounted to 16.3 µM in data set [2], 9.33 µM in [3], 28 µM in data set [5] and 9.48 µM in data set [8]. Also, the 90% effect concentration (IC90) is over 100 µM in data set [2], over 100 µM in data set [3] and 31 µM in data set [8]. For the same compound, the “direct interaction with sensor chip-immobilized HIV-1 MA” value (“direct interaction” below) in data set [12] is “directly interacted”.

As to `O=C(CNC(=O)COc1ccccc1)NCc1ccc(C(=O)N2CCCCC2)cc1` [CMPD-14, N-(2-oxo-2-((4-(piperidine-1-carbonyl)benzyl)amino)ethyl)-2-phenoxyacetamide], the “inhibitory effects on replication” value in data set [1], in data set [4], in data set [6], in data set [7], in data set [9] and in [10] was “no inhibitory effects” throughout. Further, the “inhibitory effects on replication” value in [11] is on record as “no inhibitory effects”. Besides, the “Antiviral index (TC50/IC50)” value in data set [2] is reported as over 5.56; in [3] it was over 4.51; in data set [8], over 5.85. Besides, the IC50 is 18 µM in data set [2], 22.2 µM in [3], 95 µM in data set [5] and 17.1 µM in data set [8]. The results for the concentration for an effect of 90% (IC90) in data set [2], in data set [3] and in data set [8] were 62.1 µM, 68.6 µM and 44.2 µM, respectively. The “direct interaction” value in data set [12] is “directly interacted”.

Regarding `CCOc1ccc(NC(=O)Cc2cn3ccsc3n2)cc1S(=O)(=O)N1CCCCC1` [CMPD-18, N-(4-ethoxy-3-(piperidin-1-ylsulfonyl)phenyl)-2-(imidazo[2,1-b]thiazol-6-yl)acetamide], the “inhibitory effects on replication” value in data set [1], in data set [4], in [6], in data set [7], in data set [9] and in [10] was “no inhibitory effects” in each case. In addition, in data set [11], the “inhibitory effects on replication” value is recorded as “no inhibitory effects”. Besides, the “Antiviral index (TC50/IC50)” value in [2] is reported as 3.00; in data set [3], 3.95; in data set [8], 1.06. Besides, the IC50 in data set [2] was 30.8 µM; in data set [3], 23.4 µM; in data set [5] it was over 100 µM; in [8] it was 87.1 µM. The 90% effect concentration (IC90) in data set [2] is 85.2 µM; in data set [3], 94 µM; in data set [8], over 100 µM. The “interaction with HIV-1 MA versus SUMO” value in data set [12] (25.1 μM (FIG. 11)) was “specific interaction”. Besides, in data set [12], the “direct interaction” value is recorded as “directly interacted”.
